Values joined by “and” are separate entries in the source; they are usually repeats but may differ in a detail not shown here. Identical values can stand only once.
How the values were obtained:
[1] = target: wild-type EGFR (Homo sapiens, UniProt P00533); experiment: EGFR kinase assay (ELISA); conditions: for A450: raw ELISA absorbance
[2] = test system: H460 cells; experiment: CCK-8 antiproliferation assay, H460; conditions: for Inhibitory efficacy: H460 cells
Procedure: (§1) The compounds were dissolved in DMSO to make a 20 μM stock solution and diluted to the concentration of working solutions with complete growth medium before administration.
(§2) Cells were seeded in 96-well plates: 3,000–5,000 cells/well in 100 ul. One day after seeding, the test compounds at concentration between 1.0 and 16.0 μ M or 0.1% DMSO (as control) were added to cells in triplicate. 48 h later, CCK-8 was added and incubated the plate for 1–4 h in the incubator. The absorbance at 450 nm were measured using a microplate reader (Bio-Tek).

[3] = test system: PC-9 cells; experiment: CCK-8 antiproliferation assay, PC-9; conditions: for Inhibitory efficacy: single repeats (Repeat 1-3), given as fraction
[4] = test system: A549 cells; experiment: CCK-8 antiproliferation assay, A549; conditions: for Inhibitory efficacy: A549 cells
[5] = test system: H1975 cells; experiment: CCK-8 antiproliferation assay, H1975; conditions: for Inhibitory efficacy: H1975 cells
Procedure: as §1, §2

[6] = 4uM, given as fraction, Repeat 1-3
[7] = 8uM, given as fraction, Repeat 1-3
[8] = 16uM, given as fraction, Repeat 1-3

Chain of wild-type EGFR (P00533 25-1210): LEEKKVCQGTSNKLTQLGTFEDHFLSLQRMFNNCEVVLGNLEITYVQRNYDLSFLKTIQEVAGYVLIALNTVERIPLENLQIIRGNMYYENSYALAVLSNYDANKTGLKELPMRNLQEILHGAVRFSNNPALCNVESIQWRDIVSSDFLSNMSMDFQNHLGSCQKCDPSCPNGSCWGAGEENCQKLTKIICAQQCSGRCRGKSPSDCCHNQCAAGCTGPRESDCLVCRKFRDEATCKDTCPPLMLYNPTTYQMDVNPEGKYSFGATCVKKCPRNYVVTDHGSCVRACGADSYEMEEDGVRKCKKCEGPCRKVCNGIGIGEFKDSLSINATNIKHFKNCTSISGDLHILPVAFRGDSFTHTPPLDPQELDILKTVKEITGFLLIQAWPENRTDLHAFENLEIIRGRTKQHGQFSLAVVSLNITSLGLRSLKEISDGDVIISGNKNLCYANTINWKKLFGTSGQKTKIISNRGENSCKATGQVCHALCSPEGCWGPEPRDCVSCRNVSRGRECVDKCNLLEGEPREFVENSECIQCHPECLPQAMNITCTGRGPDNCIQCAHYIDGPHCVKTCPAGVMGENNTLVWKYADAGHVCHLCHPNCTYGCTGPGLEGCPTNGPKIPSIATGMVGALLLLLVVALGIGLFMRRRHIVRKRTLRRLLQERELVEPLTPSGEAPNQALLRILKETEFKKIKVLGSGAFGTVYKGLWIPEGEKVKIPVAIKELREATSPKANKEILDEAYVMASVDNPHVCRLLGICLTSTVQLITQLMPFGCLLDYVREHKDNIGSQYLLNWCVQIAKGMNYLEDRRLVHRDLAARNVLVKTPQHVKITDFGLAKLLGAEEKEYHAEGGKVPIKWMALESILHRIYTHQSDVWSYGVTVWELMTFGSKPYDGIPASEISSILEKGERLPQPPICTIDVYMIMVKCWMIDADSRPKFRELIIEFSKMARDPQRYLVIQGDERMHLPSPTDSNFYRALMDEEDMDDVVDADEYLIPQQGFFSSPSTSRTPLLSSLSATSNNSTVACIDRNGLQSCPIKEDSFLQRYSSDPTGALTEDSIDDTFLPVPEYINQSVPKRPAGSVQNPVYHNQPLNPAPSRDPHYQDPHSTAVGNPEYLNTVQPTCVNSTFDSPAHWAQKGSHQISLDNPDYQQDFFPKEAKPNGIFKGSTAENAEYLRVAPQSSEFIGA

## COCCOc1cc2ncnc(Nc3cccc(-c4cn(Cc5ccccc5I)nn4)c3)c2cc1OCCOC [e2, [6,7-Bis-(2-methoxy-ethoxy)-quinazolin-4-yl]-{3-[1-(2-iodo-benzyl)-1H-[1,2,3]triazol-4-yl]-phenyl}-amine]
[1]; IC50 (μM) EGFR, ELISA, 3 μmol/L ATP
  IC50: 0.32 µM
[1]; concentration 0.0001 nM (reference for normalisation), one value per replicate column
  inhibition at 100 fM: 0%
[1]; concentration 0.03 nM, one value per replicate column, 3e-05 µM
  Inhibition: 2.548 and 6.494
[1]; concentration 0.3 nM, one value per replicate column
  inhibition at 0.0003 µM: 10.8%
[1]; concentration 0.3 nM, one value per replicate column, 0.0003 µM
  Inhibition: 7.792
[1]; concentration 3 nM, one value per replicate column
  inhibition at 0.003 µM: 31.8%
[1]; concentration 3 nM, one value per replicate column, 0.003 µM
  Inhibition: 24.6753
[1]; concentration 30 nM, one value per replicate column
  inhibition at 0.03 µM: 31.8%
[1]; concentration 30 nM, one value per replicate column, 0.03 µM
  Inhibition: 27.2727
[1]; concentration 300 nM, one value per replicate column
  inhibition at 0.3 µM: 49%
[1]; concentration 300 nM, one value per replicate column, 0.3 µM
  Inhibition: 35.7143
[1]; concentration 3000 nM, one value per replicate column
  inhibition at 3 µM: 63.7%
[1]; concentration 3000 nM, one value per replicate column, 3 µM
  Inhibition: 56.4935
[1]; concentration 30000 nM, one value per replicate column
  inhibition at 30 µM: 97.5%
[1]; concentration 30000 nM, one value per replicate column, 30 µM
  Inhibition: 98.0519
[1]; concentration 0.0001 nM
  A450: 0.404 and 0.396
[1]; concentration 0.03 nM
  A450: 0.4 and 0.386
[1]; concentration 0.3 nM
  A450: 0.387 and 0.384
[1]; concentration 3 nM
  A450: 0.354 and 0.358
[1]; concentration 30 nM
  A450: 0.354
[1]; concentration 300 nM
  A450: 0.327 and 0.341
[1]; concentration 3000 nM
  A450: 0.304 and 0.309
[1]; concentration 30000 nM
  A450: 0.251 and 0.245
[2]; 1uM, given as fraction, Repeat 1-3
  Inhibitory efficacy: 0.124 and 0.2238
[2]; 2uM, given as fraction, Repeat 1-3
  Inhibitory efficacy: 0.2881 and 0.2336
[2]; [6]
  Inhibitory efficacy: 0.2321 and 0.3138
[2]; [7]
  Inhibitory efficacy: 0.5164 and 0.5844
[2]; Homo sapiens, NCI-H460, 48 h, read-out: IC50 (μM) H460, CCK-8, 48 h, average ± SD of three independent experiments
  IC50: 9.08 ± 2.81 µM
[2]; Homo sapiens, NCI-H460, read-out: Inhibitory efficacy, H460 cells, 1uM, given as fraction, Repeat 1-3
  inhibition at 1 µM: 11.6%
[2]; Homo sapiens, NCI-H460, read-out: Inhibitory efficacy, H460 cells, 2uM, given as fraction, Repeat 1-3
  inhibition at 2 µM: 33.4%
[2]; Homo sapiens, NCI-H460, read-out: Inhibitory efficacy, H460 cells, 4uM, given as fraction, Repeat 1-3
  inhibition at 4 µM: 16%
[2]; Homo sapiens, NCI-H460, read-out: Inhibitory efficacy, H460 cells, 8uM, given as fraction, Repeat 1-3
  inhibition at 8 µM: 46.6%
[3]; Homo sapiens, PC-9, 48 h, read-out: IC50 (μM) PC-9
  IC50: 11.6 ± 3.64 µM
[3]; Homo sapiens, PC-9, read-out: Inhibitory efficacy, PC-9, 1uM, single repeats (Repeat 1-3), given as fraction
  inhibition at 1 µM: 7.63%
[3]; Homo sapiens, PC-9, read-out: Inhibitory efficacy, PC-9, 2uM, single repeats (Repeat 1-3), given as fraction
  inhibition at 2 µM: 20.6%
[3]; Homo sapiens, PC-9, read-out: Inhibitory efficacy, PC-9, 4uM, single repeats (Repeat 1-3), given as fraction
  inhibition at 4 µM: 28.9%
[3]; Homo sapiens, PC-9, read-out: Inhibitory efficacy, PC-9, 8uM, single repeats (Repeat 1-3), given as fraction
  inhibition at 8 µM: 36.1%
[3]; Homo sapiens, PC-9, read-out: Inhibitory efficacy, PC-9, 16uM, single repeats (Repeat 1-3), given as fraction
  inhibition at 16 µM: 49.1%
[3]; PC-9, 1uM, 1 µM
  Inhibitory efficacy: 0.07634 and 0.0877
[3]; PC-9, 2uM, 2 µM
  Inhibitory efficacy: 0.1331 and 0.1085
[3]; PC-9, 4uM, 4 µM
  Inhibitory efficacy: 0.3461 and 0.3328
[3]; PC-9, 8uM, 8 µM
  Inhibitory efficacy: 0.365 and 0.4549
[3]; PC-9, 16uM, 16 µM
  Inhibitory efficacy: 0.6025 and 0.6224
[4]; [6]
  Inhibitory efficacy: 0.4029 and 0.476
[4]; [7]
  Inhibitory efficacy: 0.4092 and 0.465
[4]; [8]
  Inhibitory efficacy: 0.5413 and 0.5397
[4]; Homo sapiens, A549, 48 h, read-out: IC50 (μM) A549, CCK-8, 48 h, average ± SD of three independent experiments
  IC50: 11.8 ± 1.7 µM
[4]; Homo sapiens, A549, read-out: Inhibitory efficacy, A549 cells, 4uM, given as fraction, Repeat 1-3
  inhibition at 4 µM: 29.4%
[4]; Homo sapiens, A549, read-out: Inhibitory efficacy, A549 cells, 8uM, given as fraction, Repeat 1-3
  inhibition at 8 µM: 41.8%
[4]; Homo sapiens, A549, read-out: Inhibitory efficacy, A549 cells, 16uM, given as fraction, Repeat 1-3
  inhibition at 16 µM: 50.4%
[5]; [7]
  Inhibitory efficacy: 0.3905 and 0.2825
[5]; [8]
  Inhibitory efficacy: 0.5504 and 0.4649
[5]; Homo sapiens, NCI-H1975, 48 h, read-out: IC50 (μM) H1975, CCK-8, 48 h, average ± SD of three independent experiments
  IC50: 15.7 ± 2.76 µM
[5]; Homo sapiens, NCI-H1975, read-out: Inhibitory efficacy, H1975 cells, 8uM, given as fraction, Repeat 1-3
  inhibition at 8 µM: 37.6%
[5]; Homo sapiens, NCI-H1975, read-out: Inhibitory efficacy, H1975 cells, 16uM, given as fraction, Repeat 1-3
  inhibition at 16 µM: 48.4%
other
  melting point: 93 to 96 °C

Source: article PMC8776995 (Frontiers in Chemistry, 2022)
